“Also recorded” adds a separate entry of the source.
What was measured:
[1] = tested on: subclone 4 and 2 xenograft; assay: tumor xenograft of aggressive subclones 4 and 2 in NOD/SCID mice; type: in vivo, mouse
Protocol: (§1) Mice studies. Animal protocols were approved by an Institutional Animal Care and Use Committee (IACUC) according to NIH guidelines. Tumor xenografts were established by subcutaneous injection of 5×10^6 cancer cells into the left and right flanks of 10-week-old male NOD/SCID mice (Charles River). Tumor length (L) and width (W) were measured with calipers weekly and tumor volume was estimated as V=(L×W^2)/2. After the tumor volumes reached approximately 100 mm^3, mice were sacrificed and tumors were harvested. Half of the tumors were used for protein extraction and the other half were digested with collagenase I solution (SIGMA) to isolate cancer cells.
(§2) For MB5 treatment, after tumor volume reached approximately 100 mm^3, mice were injected peritoneally with DMSO or MB5 at 20 mg/kg or 10 mg/kg daily and further monitored for tumor growth weekly. At the end of treatment period (about 2-3 weeks), tumors were harvested and tumor lysates were analyzed for protein expression by Western blot.
The therapeutic potential of MB5 in a tumor xenograft model was first tested by injecting DU145 or corresponding α1 knockdown cells (KD) into the right or left flank of 10-week-old NOD/SCID mice. The tumor growth was monitored twice weekly. […] Next, it was determined whether MB5 could decrease tumor growth of highly aggressive subclones derived from DU145. […]

[2] = tested on: PY17 cells; assay: basal ERK phosphorylation in PY17 cells; type: cell-based, pig
Protocol: Western blot, Immunoprecipitation and Immunostaining. Cells were grown to 100% confluency and Western blot were performed as described before. Images were quantified with ImageJ software from NIH. Immunoprecipitation studies were performed as described before. α1 NKA immunostaining was performed by growing cells on sterilized coverslips in 6 well tissue culture plates and permeabilization/fixation with ice-cold methanol followed by blocking with 5% horse serum and 0.1% Triton X-100 in 1× Phosphate buffered saline (PBS) for 30 minutes. Coverslips were then stained with an anti-α1 NKA antibody (Millipore, Cat #05-369) at 1:100 dilution in 1% BSA (Bovine Serum Albumin) containing 1×PBS solution for overnight. Next day after three washes, coverslips were stained with Alexa Fluor 488 conjugated anti-mouse secondary antibody (Thermo-Fisher) for 1 hour, washed extensively and then imaged using a fluorescent microscope with GFP filter or confocal microscope (LEICA-DMIRE2). E-cadherin and occludin immunostaining was performed in a similar manner. Phospho-Src, phospho ERK1/2 immunostaining were performed as described before and images were taken with a LEICA DMIRE2 confocal microscope. […]

[3] = tested on: clone 2 spheroids (DU145 derived); assay: 3D culture spheroid invasion assay, subclone 2; type: cell-based, human
Protocol: (§3) 3D culture-spheroid invasion assay. Cells were trypsinized gently (0.05% Trypsin-EDTA) and diluted at 1000 cells in 20 μl of full serum media for DU145 and C4-2 derived sub-clones or 500 cells in 20 ul for PC3 cells and allowed to form spheroids using hanging drop technique for 3 days, as described previously. Generated spheroids were then embedded into 3D matrix (not yet solidified at the time of experiment), as described in the previous section, on top of a 1% solidified agarose coating in 48 well plates. Spheroids were monitored from day 1 to different time points and images were taken using a phase contrast microscope fitted with camera, at same settings. Spheroid growth or invasion area was quantified using ImageJ software from NIH. The following formulas were used for quantitation of spheroids:
(§4) Spheroid invasion=(Invasion area/Spheroid area)*100
(§5) Spheroid growth=(Spheroid area at Day 3 or 7-Spheroid area at 16 hours)/Spheroid area at 16 hours
(§6) For drug treatment, compound was diluted into media, from stock solution. For MMP secretion, conditioned media for 3 days were collected from top of matrix and assessed for MMP secretion by Western blot using Matrix Remodeling Antibody Sampler kit from Cell Signaling Technology (Cat #73959).

[4] = tested on: PC3 cells; assay: 3D culture spheroid invasion and growth, PC3; type: cell-based, human
Protocol: as §3, §4, §5, §6

[5] = tested on: PC3 cells; assay: Western blot and cell fractionation in PC3 cells; type: cell-based, human; settings: PC3, 72-120 hours of treatment
Protocol: Western blot, Immunoprecipitation and Immunostaining. Cells were grown to 100% confluency and Western blot were performed as described before. Images were quantified with ImageJ software from NIH. Immunoprecipitation studies were performed as described before. α1 NKA immunostaining was performed by growing cells on sterilized coverslips in 6 well tissue culture plates and permeabilization/fixation with ice-cold methanol followed by blocking with 5% horse serum and 0.1% Triton X-100 in 1× Phosphate buffered saline (PBS) for 30 minutes. Coverslips were then stained with an anti-α1 NKA antibody (Millipore, Cat #05-369) at 1:100 dilution in 1% BSA (Bovine Serum Albumin) containing 1×PBS solution for overnight. Next day after three washes, coverslips were stained with Alexa Fluor 488 conjugated anti-mouse secondary antibody (Thermo-Fisher) for 1 hour, washed extensively and then imaged using a fluorescent microscope with GFP filter or confocal microscope (LEICA-DMIRE2). E-cadherin and occludin immunostaining was performed in a similar manner. Phospho-Src, phospho ERK1/2 immunostaining were performed as described before and images were taken with a LEICA DMIRE2 confocal microscope.

[6] = tested on: P450 enzymes; assay: metabolism by P450 enzymes; type: in vitro ADME
[7] = tested on: DU145 or α1 knockdown cells (KD) xenograft; assay: tumor xenograft of DU145 or α1 KD cells in NOD/SCID mice; type: in vivo, mouse
Protocol: as §1, §2
The therapeutic potential of MB5 in a tumor xenograft model was first tested by injecting DU145 or corresponding α1 knockdown cells (KD) into the right or left flank of 10-week-old NOD/SCID mice. The tumor growth was monitored twice weekly. Once the tumors reached a volume of approximately 100 mm^3, the animals received daily injections of MB5 at 20 mg/kg intraperitoneally for 3.5 weeks. […] Next, it was determined whether MB5 could decrease tumor growth of highly aggressive subclones derived from DU145. […] FIG. 26E summarizes the effect of MB5 treatment on all types of xenografted tumor growth from DU145 and derivative cell lines.

[8] = tested on: PC3 cells; assay: Spheroid aggregation in ultralow attachment plates, PC3; type: cell-based, human
Protocol: Spheroid aggregation in ultralow attachment plates. 5000 cells were plated in a 6 well ultralow attachment plate from Corning and allowed to form spheroids spontaneously for a week. Cell aggregates were then immunostained for E-cadherin expression using a monoclonal anti-E-cadherin antibody (Santacruz Biotechnology, Catalogue No.sc-71008), followed by Alexa-Fluor 488 anti-mouse secondary antibody (Thermo-Fisher).

[9] = pharmacokinetic (PK) and toxicity study in a mouse model; type: in vivo

With `O=c1c2cccc(O)c2oc2c(O)c(O)ccc12` [MB5] the tumor growth ([1]; 10 mg/kg, subclones 4 and 2) was “significantly reduced tumor growth from both cell types; also recorded: significantly reduced xenografted tumor growth”, the “α1 NKA and E-cadherin expression in tumor lysates” value ([1]; subclone 2 tumor lysates, Western blot) was “increasing α1 NKA and E-cadherin expression” and the “basal ERK phosphorylation” value [2] was “inhibited ERK phosphorylation in a dose-dependent manner”. For the same compound, the spheroid invasion ([3]; clone 2 spheroids, 3D culture) was “abolished the invasion; also recorded: suppressed spheroid invasion by subclone 2 cells in a dose-dependent manner; also recorded: significantly reduced invasion of clone 2 spheroids in a dose-dependent manner”, the spheroid size ([3]; subclone 2 spheroids, 72 hours) was “significantly reduced spheroid size” and the “inhibition of spheroid size” value ([4]; PC3, 0.1 μM) was “about 25%”. The “inhibition of spheroid size” value ([4]; PC3, 1 μM) was about 50%, the “spheroid size / growth” value ([4]; PC3 spheroids) was “reduced spheroid invasion and growth; also recorded: reduced spheroid size in a concentration-dependent manner” and the spheroid invasion ([4]; PC3 spheroids, day 7) was “reduced spheroid invasion; also recorded: suppressed spheroid invasion; also recorded: reduced both invasion”. For the same compound, the EMT phenotype [5] was “reversed the EMT phenotype”, the Src activation [5] was “decreased Src activation” and the “α1 NKA expression” value [5] was “significantly increased α1 NKA expression”. The “metabolism by P450 enzymes” value [6] was “not metabolized significantly”, the “reduction of tumor growth” value ([7]; 20 mg/kg daily intraperitoneally for 3.5 weeks, DU145 and KD groups) was “about 70%” and the bodyweight ([7]; 20 mg/kg, NOD/SCID mice) was “without significantly affecting bodyweight”. The tumor growth ([7]; 20 mg/kg/day, DU145 or KD cells) was “reduces tumor growth”, the tumor growth ([7]; all tested cell lines xenografted into NOD/SCID mice) was “significantly reduced tumor growth from all tested cell lines” and the cell aggregation ([8]; PC3, ultralow attachment plates) was “increased cell aggregation in a concentration-dependent manner”. For the same compound, the E-cadherin expression ([8]; PC3 aggregates, immunostaining) was “significantly increased E-cadherin expression”, the “systemic exposure level versus dose” value ([9]; 50-200 mg/kg after oral administration) was “proportional to dose level” and the toxic effects ([9]; after more than 1 month of administration) was “No detectable toxic effects”. The “removal by secondary metabolism” value ([9]; most likely by UGT enzymes) was “quickly removed by secondary metabolism” and the toxicity ([9]; mouse, in vivo) was “quite non-toxic”.

Reference: patent US20230130102A1, “Na/K-ATPase LIGANDS AND USE THEREOF FOR TREATMENT OF CANCER” (Marshall University Research Corporation, priority 2019, published 2023)
